The test system of one data set is NT2 precursor cells. The data set is described as follows: cells. The following applies: for IC50: Homo sapiens, read-out: IC50 migration (spec. EP). In kind it is cell-based, human. The procedure:
(§1) As established before (Stern et al. [2014]), NT2 precursor cells were seeded in 96-mm bacteriological grade Petri dishes (Greiner, Hamburg, Germany) at a density of 4 × 10^6–5 × 10^6 cells per dish. Within 24 h, cells formed free-floating spherical aggregates of 300–800 µm diameter. On the first day, 10 ml of culture medium was added to each Petri dish. On the next days, medium with 10 μM retinoic acid (RA) was added and changed every 2–3 days by transferring the cell suspension to centrifuge tubes and centrifuge at 200 × g for 7 min. After 9 days in culture, aggregates were gently resuspended using a Pasteur pipette, and seeded at 60,000 cells per well into black 96-well plates with flat transparent bottom (Nunc). Plates were lined with poly-D-lysine and laminin (10 µg/ml each), equipped with silicone stoppers from the Oris Cell Migration Assay (AMS Biotechnology, Abingdon, UK). Cells were allowed to adhere overnight. On the next day, stoppers were pulled leaving a monolayer of cells with a circular hole of 2-mm diameter. […] After one wash in PBS, cells were fixed for 15 min in PFA, washed twice in PBS-T and stained with DAPI (0.5 µg/ml) for 5 min, followed by two washes in PBS. A black 96-hole plastic mask leaving a central circular area of 2-mm diameter for each well was clipped to the bottom of the plate. This allows viewing only those cells that had migrated into the free areas left by the silicone stoppers during seeding (Fig. 1b). Migration was quantified by taking two photographs of each well and measuring the distance of the migration front from the black margin of the mask in using ImageJ. Occasional asymmetries caused by slight inaccuracies of silicone stopper placement were compensated by averaging measurements in four quadrants per well. […] Average null-migration values were subtracted from migrated distance before evaluation.

The next data set deals with N2a neuroblastoma cells. Also on record: method as in Sidiropoulou et al. ([2011]). As to conditions: ref Sidiropoulou et al. ([2011]); cited from earlier work.
Data set [1] is described as follows: Resazurin reduction viability assay in the cell migration assay. It is filed as cell-based. As to conditions: human. The procedure:
as §1
A general note: Resazurin is reduced to fluorescent resorufin, in cell work by metabolically active cells.

The test system of another data set is SH-SY5Ycells. More on the design: method as in Ruangjaroon et al. [2017]. As to conditions: incompletely differentiated cells; ref Ruangjaroon et al. [2017]; cited from earlier work.
Data set [2] in a line: Resazurin reduction viability assay in the neuronal differentiation assay. It is filed as cell-based, human. As to conditions: human. How it is done:
(§2) As established in our previous study (Stern et al. [2014]), cells were seeded into 96-well plates (Corning Costar, Kaiserslautern, Germany) at 80,000 cells per well and incubated in DMEM/F12 with 10 µM retinoic acid (RA) for 4 days (one media change). Cells were incubated for further 5 days (one media change) in media containing 10 µM RA and up to seven concentrations of a test compound. On day 9 (5-day exposition), cell viability was measured using a resazurin reduction assay (Trinova Biochem, Giessen, Germany). Subsequently, cells were fixed for 15 min in PFA and immunolabeled for ß-tubulin type III as above (Fig. 1a). For control purposes, photographs were taken at × 20 magnification as above. Neuronal differentiation was determined by measuring red fluorescence (excitation 568 nm, emission 603 nm) in a multiwell-plate reader (Infinite 200, TECAN, Germany). As a confirmation of the viability data, cell number was also quantified by measuring DAPI fluorescence (excitation 350 nm, emission 488 nm).

The test system of data set [3] is differentiating NT2 cells. The data set is described as above. As to conditions: differentiation assay. It is filed as cell-based, human. The procedure: as §2
For the next data set, the system named is NT2 neurons. The data set is described as follows: cells. It is filed as cell-based, human. The text has this: Two photographs/well at × 20 magnification were taken.
The subject of data set [4] is differentiating NT2 cells. In words: cells. In kind it is cell-based, human. The following applies: for IC50: NT2, 120 h, read-out: IC50 neuronal differentiation (ß-tub III, spec. EP). How it is done: as §2
Another data set concerns insect GABAa receptors. More on the design: method as in Hainzl et al. [1996]. As to conditions: ref Hainzl et al. [1996]; cited from earlier work.
A further data set deals with zebrafish embryo. As to conditions: cited from earlier work.
Another data set is described as follows: in vitro. As to conditions: human.
Data set [5] concerns NT2 cells treated for 2 weeks with retinoic acid (2wkRA). The following applies: […].
Procedure: (§3) Dispersed cells were seeded into two identical poly-D-lysine (10 µg/ml) coated 96-well plates (Corning Costar, Kaiserslautern, Germany) at a density of 10,000 cells per well. Cultures were exposed to up to seven different concentrations of a test compound in DMEM/F12 (six technical replicates per concentration) for 24 h. One plate was immediately fixed in 4% paraformaldehyde in PBS (PFA) for 15 min. After 24 h, while a resazurin reduction assay (2 h) was performed on the other plate. […] Fixed cells were washed in PBS containing 0.1% Triton X100 (PBS-T) and immunolabeled for ß-tubulin type III (monoclonal anti ßtubIII, 1:20,000) using a red fluorescent secondary antibody (goat anti mouse-alexaFluor568, Invitrogen, Germany, 1:250) and DAPI (0.1 µg/ml) as nuclear counterstain. Cells were examined on a Zeiss Axiovert 200 inverted microscope equipped with a CoolSnap camera (Photometrics, Tucson, AZ, USA) and MetaMorph software (Molecular Devices, Sunnyvale, CA, USA), or a Zeiss Axiocam50 mono and Zeiss ZENlite 2.6 blue edition software. Two photographs/well at × 20 magnification were taken. Lengths of all neurites in the field of view were measured in ImageJ (http://imagej.nih.gov/ij) using the ‚segmented line ‘ tool (Fig. 1c) and divided by the number of ß-tubulin III-positive cells.
For data set [6] the following is noted: human.
Procedure: as §3
For the next data set, the system named is neurospheres. More on the design: method as in Ishido and Suzuki ([2010]). As to conditions: general cytotoxicity not tested; ref Ishido and Suzuki ([2010]); read-out: IC50 cell migration out of neurospheres; cited from earlier work.
The mark [7] stands for this setting: yes = at least one concentration of rescuing compound with specific endpoint significantly less affected.
Setting [8] is: migration assay, 44 h exposure, > = highest tested concentration, read-out: IC50 general cytotoxicity (resazurin), unspec. EP.
The mark [9] stands for this setting: yes = at least one concentration of rescuing compound with specific endpoint significantly less affected than by test compound alone.

A word on the viability: it is the share of living cells, or the viability signal relative to a control.

Where two headings read alike, the source gives them in different places. Bounds are passed on as bounds.

Procedure for in vitro: as §3

Regarding `N#Cc1nn(-c2c(Cl)cc(C(F)(F)F)cc2Cl)c(N)c1[S+]([O-])C(F)(F)F` (stereo not drawn) [Fipronil, 5-Amino-1-[2,6-dichloro-4-(trifluoromethyl)phenyl]-4-(trifluoromethylsulfinyl)pyrazole-3-carbonitrile], the “Concentrations with significant differences between viability and migration” value in the data set on NT2 precursor cells (44 h exposure) was ≥ 15.63 µM. Also, the IC50 was 25.1 µM with NT2 precursor cells (44 h exposure); > 62.5 µM in [1] (setting [8]); 23.2 µM in [2] (differentiation assay, 5 days exposure, read-out: IC50 general cytotoxicity (resazurin), unspec. EP); 23.4 µM in data set [3] (5 days exposure, read-out: IC50 general cytotoxicity (resazurin), unspec. EP); > 62500 nM with NT2 neurons (Homo sapiens, 24 h exposure, total neurite length/neuron, normalized to solvent control, read-out: IC50 neurite outgrowth (spec. EP)); 14.8 µM in [4] (Homo sapiens, 5 days exposure). The IC50 in “in vitro” was > 62.5 µM. Further, the “Rescue by NAC, migration” value in the data set on NT2 precursor cells (setting [7]) is “yes”. Also, the “Concentration reducing outgrowth of axon-like processes” value in the data set on N2a neuroblastoma cells is listed as 1 µM. Also, the “Concentration reducing process outgrowth of vimentin-positive protrusions, but not viability” value in the data set on SH-SY5Ycells is 25 µM. Further, in data set [2] (15.6 µM fipronil, read-out: General viability (% of control)), the viability is > 90%. The activity at 15.6 µM in data set [4] (Homo sapiens, NT2, 15.6 µM fipronil, read-out: ß-tubulin III-immunofluorescence (% of control)) was < 50%. In addition, the “Rescue by NAC, neuronal differentiation” value in data set [4] (setting [7]) is “yes”. Further, the “Higher affinity to insect GABAa receptors than to vertebrate GABA receptors” value in the data set on insect GABAa receptors was “more than 100 fold”. Moreover, the “Concentration inhibiting zebrafish neurogenesis” value with zebrafish embryo (via reduction of gene expression for neuron/glia differentiation, ref Park et al. [2020]) is on record as ~ 33 µM. For the same molecule, the “Concentration disturbing development of motor circuits” value in the data set on zebrafish embryo (zebrafish embryo, ref Stehr et al. [2006]) was 0.7 µM.
As for `C=C(C)[C@H]1Cc2c(ccc3c2O[C@@H]2COc4cc(OC)c(OC)cc4[C@@H]2C3=O)O1` [Rotenone, (1S,6R,13S)-16,17-Dimethoxy-6-prop-1-en-2-yl-2,7,20-trioxapentacyclo[11.8.0.0^3,11.0^4,8.0^14,19]henicosa-3(11),4(8),9,14,16,18-hexaen-12-one], the “Concentration at which a significant reduction of migration could already be observed” value in the data set with NT2 precursor cells (44 h exposure) is on record as 4.12 nM. Besides, the IC50 in the data set on NT2 precursor cells (44 h) is 0.051 µM; in the data set with NT2 neurons (Homo sapiens, Neuron, 24 h, read-out: IC50 neurite outgrowth (spec. EP)) it was 550 nM; with NT2 neurons (Homo sapiens, Neuron, 24 h, read-out: IC50 spec. EP (neurite outgrowth)) it was 550 nM; in [4] (Homo sapiens), 0.00518 µM; with neurospheres, ~200 nM. In the data set on NT2 precursor cells (setting [7]), the “Rescue by NAC, migration” value is “no”. Besides, the “Rescue by Y-27632, migration” value in the data set with NT2 precursor cells (setting [7]) is given as “Yes”. For the same molecule, the viability at 44 h, 0.333 µM in [1] (highest tested rotenone concentration (333 nM), read-out: General viability (% of control)) is > 70%. In addition, the IC50 at 44 h in data set [1] (setting [8]) is > 333 nM. Further, the IC50 at 5 days in data set [2] (differentiation assay, 5 days exposure, > = highest tested concentration, read-out: IC50 general cytotoxicity (resazurin), unspec. EP) was > 100 nM. For the same molecule, the viability at 5 days, 0.1 µM in data set [2] (highest tested rotenone concentration (100 nM), read-out: General viability (% of control)) was determined as 72%. Besides, the “Highest non-cytotoxic concentration (viability > 90%)” value amounted to 1.2 nM in [3] and 123 nM in data set [5]. Moreover, the activity at 0.123 µM in the data set with NT2 neurons (Homo sapiens, Neuron, read-out: Neurite outgrowth (% of control)) is < 75%. For the same molecule, the “Rescue by NAC, neurite outgrowth” value with NT2 neurons (setting [9]) is on record as “no”. Further, the “Rescue by Y-27632, neurite outgrowth” value with NT2 neurons (setting [9]) was “Yes”. Further, in data set [4] (1.2 nM rotenone, highest non-cytotoxic concentration), the “ß-tubulin III-expression (% of control)” value is “below 75%”. Also, the “Rescue by NAC, neuronal differentiation” value in [4] (setting [7]) is “no”. Also, in [4] (setting [7]), the “Rescue by Y-27632, neuronal differentiation” value is listed as “No”. The IC50 at 24 h in data set [6] was > 10 µM. The viability at 24 h, 10 µM in data set [6] (General cell viability (% of control), highest tested concentration, 10 µM rotenone) was ~80%.

Values taken from article PMC8275550, “Developmental Neurotoxicity of Fipronil and Rotenone on a Human Neuronal In Vitro Test System” (Neurotoxicity Research, 2021).
